The subject of experiment [1] is Mus musculus. The experiment can be described thus: Acquisition time in (R)-PIA) induced avoidance test (performed in mice) for antagonistic activity after peroral administration of 0.08 mg/kg. To be noted: route oral. The experiment is classed as functional.
For experiment [2], the system named is Mus musculus. The experiment can be described thus: Acquisition time in (R)-PIA) induced avoidance test (performed in mice) for antagonistic activity after peroral administration of 0.31 mg/kg (n=15). The experiment is classed as functional. To be noted: route oral.
The test system of experiment [3] is Mus musculus. The experiment can be described thus: Acquisition time in (R)-PIA) induced avoidance test (performed in mice) for antagonistic activity after p.o. administration of 1.25 mg/kg. The experiment is classed as functional. Particulars: route oral.
The test system of experiment [4] is Mus musculus. The experiment can be described thus: Retention time in (R)-PIA) induced avoidance test (performed in mice) for antagonistic activity after p.o. administration of 1.25 mg/kg. The experiment is classed as functional, organism-based. Details: dose 1.25 mg/kg.
Experiment [5] has as its system Mus musculus. The experiment can be described thus: Retention time in (R)-PIA) induced avoidance test (performed in mice) for antagonistic activity after peroral administration of 5 mg/kg. Type of experiment: functional, organism-based. More on the design: dose 5 mg/kg.
The test system of experiment [6] is Mus musculus. The experiment can be described thus: Retention time in (R)-PIA) induced avoidance test (performed in mice) for antagonistic activity after peroral administration of 0.08 mg/kg. Details: dose 0.08 mg/kg. Type of experiment: functional, organism-based.
Experiment [7] concerns Mus musculus. The experiment can be described thus: Retention time in (R)-PIA) induced avoidance test (performed in mice) for antagonistic activity after peroral administration of 0.31 mg/kg (n=15) (P<0.005). Type of experiment: functional, organism-based. Details: dose 0.31 mg/kg.
Experiment [8] relates to Rattus norvegicus. The experiment can be described thus: Acquisition time in Scopolamine induced avoidance test (performed in rat) for antagonistic activity after peroral administration of 1.25 mg/kg. The experiment is classed as functional. To be noted: route oral.
The test system of experiment [9] is Rattus norvegicus. The experiment can be described thus: Acquisition time in Scopolamine induced avoidance test (performed in rat) for antagonistic activity after peroral administration of 20 mg/kg. The experiment is classed as functional. Particulars: route oral.
Experiment [10] deals with Rattus norvegicus. The experiment can be described thus: Acquisition time in Scopolamine induced avoidance test (performed in rat) for antagonistic activity after p.o. administration of 0.08 mg/kg. The experiment is classed as functional. To be noted: route oral.
The test system of experiment [11] is Rattus norvegicus. The experiment can be described thus: Acquisition time in Scopolamine induced avoidance test (performed in rat) for antagonistic activity after peroral administration of 0.31 mg/kg (n=15). The experiment is classed as functional. Particulars: route oral.
For experiment [12], the system named is Rattus norvegicus. The experiment can be described thus: Acquisition time in Scopolamine induced avoidance test (performed in rat) for antagonistic activity after p.o. administration of 5 mg/kg. The experiment is classed as functional. Particulars: route oral.
The test system of experiment [13] is Rattus norvegicus. The experiment can be described thus: Retention time in Scopolamine induced avoidance test (performed in […]) for antagonistic activity after peroral administration of 5 mg/kg. The experiment is classed as functional, organism-based. Details: dose 5 mg/kg.
For experiment [14], the system named is Rattus norvegicus. The experiment can be described thus: Retention time in Scopolamine induced avoidance test (performed in rat) for antagonistic activity after peroral administration of 0.02 mg/kg. The experiment is classed as functional, organism-based. More on the design: dose 0.02 mg/kg.
Experiment [15] concerns Rattus norvegicus. The experiment can be described thus: Retention time in Scopolamine induced avoidance test (performed in rat) for antagonistic activity after p.o. administration of 0.08 mg/kg. Details: dose 0.08 mg/kg. The experiment is classed as functional, organism-based.
The subject of experiment [16] is Rattus norvegicus. The experiment can be described thus: Retention time in Scopolamine induced avoidance test (performed in rat) for antagonistic activity after peroral administration of 0.31 mg/kg (n=15). Type of experiment: functional, organism-based. More on the design: dose 0.31 mg/kg.
In experiment [17] the test system is Rattus norvegicus. The experiment can be described thus: Retention time in Scopolamine induced avoidance test (performed in rat) for antagonistic activity after peroral administration of 1.25 mg/kg. Type of experiment: functional, organism-based. More on the design: dose 1.25 mg/kg.
The subject of experiment [18] is Rattus norvegicus. The experiment can be described thus: Retention time in Scopolamine induced avoidance test (performed in rat) for antagonistic activity after peroral administration of 20 mg/kg (n=14). The experiment is classed as functional, organism-based. Details: dose 20 mg/kg.
Experiment [19] has as its system Mus musculus. The experiment can be described thus: Acquisition time in (R)-PIA) induced avoidance test (performed in mice) for antagonistic activity after peroral administration of 5 mg/kg. The experiment is classed as functional. Particulars: route oral.
Experiment [20] deals with Rattus norvegicus. The experiment can be described thus: Acquisition time in Scopolamine induced avoidance test (performed in rat) for antagonistic activity after peroral administration of 0.02 mg/kg. To be noted: route oral.
A further experiment deals with T1, Adenosine receptor A1 (Bos taurus, UniProt P28190).
T1 sequence (P28190 whole entry): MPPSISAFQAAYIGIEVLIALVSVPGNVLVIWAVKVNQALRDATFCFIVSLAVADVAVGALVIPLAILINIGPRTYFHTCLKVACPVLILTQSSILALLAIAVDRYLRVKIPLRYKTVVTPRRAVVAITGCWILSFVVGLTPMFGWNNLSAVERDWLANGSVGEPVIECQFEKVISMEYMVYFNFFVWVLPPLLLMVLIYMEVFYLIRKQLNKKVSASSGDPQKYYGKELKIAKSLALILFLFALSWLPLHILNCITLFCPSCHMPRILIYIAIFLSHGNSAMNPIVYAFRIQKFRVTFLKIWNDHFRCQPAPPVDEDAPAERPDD
The experiment can be described thus: Binding affinity towards Adenosine A1 receptor of bovine brain at 10e-5 M with [125I]-N6-aminobenzyladenosine.

A further experiment concerns the target Adenosine A2 receptor (Homo sapiens, UniProt P29275+P29274). The experiment can be described thus: Binding affinity towards Adenosine A2 receptor of human platelets with [125I]-N6-aminobenzyladenosine.
Experiment [21] deals with Mus musculus. The experiment can be described thus: Acquisition time in (R)-PIA) induced avoidance test (performed in mice) for antagonistic activity after p.o. administration of 0.31 mg/kg. Type of experiment: functional. Particulars: route oral.
The subject of experiment [22] is Mus musculus. The experiment can be described thus: Retention time in (R)-PIA) induced avoidance test (performed in mice) for antagonistic activity after peroral administration of 0.31 mg/kg. More on the design: dose 0.31 mg/kg. The experiment is classed as functional, organism-based.
The test system of experiment [23] is Rattus norvegicus. The experiment can be described thus: Acquisition time in Scopolamine induced avoidance test (performed in rat) for antagonistic activity after p.o. administration of 0.31 mg/kg. The experiment is classed as functional. To be noted: route oral.
The subject of experiment [24] is Rattus norvegicus. The experiment can be described thus: Retention time in Scopolamine induced avoidance test (performed in rat) for antagonistic activity after p.o. administration of 0.31 mg/kg. Details: dose 0.31 mg/kg. The experiment is classed as functional, organism-based.
Experiment [25] has as its system Rattus norvegicus. The experiment can be described thus: Retention time in Scopolamine induced avoidance test (performed in rat) for antagonistic activity after peroral administration of 20 mg/kg. The experiment is classed as functional, organism-based. More on the design: dose 20 mg/kg.
Experiment [26] concerns Mus musculus. The experiment can be described thus: Retention time in (R)-PIA) induced avoidance test (performed in mice) for antagonistic activity after peroral administration of 0.02 mg/kg.
The test system of experiment [27] is Mus musculus. The experiment can be described thus: Acquisition time in (R)-PIA) induced avoidance test (performed in mice) for antagonistic activity after peroral administration of 0.02 mg/kg. Particulars: route oral.

The term Ki denotes the equilibrium dissociation constant of an inhibitor or competing ligand from its target. A low value points to higher affinity.

With `CC(C)Cn1c(=O)n(C)c(=O)c2[nH]c(C(C3CC3)C3CC3)nc21`, the Acquisition time is listed as 25.7 s with Mus musculus [1]; 26.4 s in the experiment on Mus musculus [2]; 19.9 s in the experiment on Mus musculus [3]; 11.8 s with Rattus norvegicus [8]; 9.6 s with Rattus norvegicus [9]; 7.1 s in the experiment on Rattus norvegicus [10]. The Acquisition time with Rattus norvegicus [11] is 8.3 s; with Rattus norvegicus [12] it was 11.5 s; in the experiment with Mus musculus [19] it was 12.5 s; with Rattus norvegicus [20] it was 10.1 s. Besides, the Retention time in the experiment on Mus musculus [4] was determined as 349 s; in the experiment with Mus musculus [5] it was 359 s; with Mus musculus [6], 171 s; in the experiment with Mus musculus [7] it was 370 s; with Rattus norvegicus [13], 9.9 s; in the experiment with Rattus norvegicus [14] it was 17.6 s. Moreover, the Retention time with Rattus norvegicus [15] was 17.6 s; in the experiment with Rattus norvegicus [16] it was 50.9 s; with Rattus norvegicus [17], 22.8 s; with Rattus norvegicus [18], 14.1 s.

Regarding `CCCn1c(=O)c2nc(C3CCCC3)[nH]c2n(CCc2ccc(NC(=O)C(C)C)cc2)c1=O`, the Ki at Adenosine receptor A1 was 16 nM; at Adenosine A2 receptor, above 100000 nM. Moreover, the Acquisition time is given as 16 s in the experiment with Mus musculus [1]; 29.3 s in the experiment with Mus musculus [21]; 33.3 s with Mus musculus [3]; 6.6 s with Rattus norvegicus [8]; 9 s in the experiment with Rattus norvegicus [9]; 10.1 s with Rattus norvegicus [10]. For the same compound, the Acquisition time stood at 10.1 s in the experiment on Rattus norvegicus [23], 11.9 s in the experiment on Rattus norvegicus [12], 34.4 s with Mus musculus [19] and 6 s in the experiment on Mus musculus [27]. Further, the Retention time in the experiment on Mus musculus [4] stood at 171 s; in the experiment on Mus musculus [5] it was 94.7 s; in the experiment with Mus musculus [6] it was 32.9 s; with Mus musculus [22], 88.6 s; in the experiment with Rattus norvegicus [13], 20 s; in the experiment on Rattus norvegicus [15], 10.7 s. The Retention time was determined as 18.6 s in the experiment with Rattus norvegicus [24], 19.3 s in the experiment on Rattus norvegicus [17], 65.4 s with Rattus norvegicus [25] and 9.4 s in the experiment on Mus musculus [26].

Source of the values: ChEMBL document CHEMBL1126778, “Adenosine A1 antagonists. 3. Structure-activity relationships on amelioration against scopolamine- or N6-((R)-phenylisopropyl)adenosine-induced cognitive disturbance” (J Med Chem, 1993).
